Assays:
Assay type in all cases: cell-based
human CCR2 = target: T1, human CCR2 (Homo sapiens, UniProt P41597); assay: Functional Ca2+ release test (B-1); settings: Chem-1 cell line transfected with human CCR2, inhibition of MCP-1 effect, MCP-1 at EC50 (about 5 nM), Fluo-4
T1 construct: host or cells: Chem-1 cell line
T1 sequence (P41597 1-360 isoform P41597-2): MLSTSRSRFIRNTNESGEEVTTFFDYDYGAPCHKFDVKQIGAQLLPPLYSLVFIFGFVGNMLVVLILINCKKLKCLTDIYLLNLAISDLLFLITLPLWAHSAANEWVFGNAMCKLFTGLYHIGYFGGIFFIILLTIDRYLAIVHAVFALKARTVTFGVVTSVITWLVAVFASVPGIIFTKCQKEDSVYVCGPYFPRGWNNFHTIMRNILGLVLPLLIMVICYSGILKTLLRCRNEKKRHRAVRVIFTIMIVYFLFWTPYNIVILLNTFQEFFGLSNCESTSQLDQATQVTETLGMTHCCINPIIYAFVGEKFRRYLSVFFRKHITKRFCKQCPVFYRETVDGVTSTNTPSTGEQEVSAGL
Experimental: The antagonistic action of test substances on CCR2 was determined in a functional Ca^2+ release test. Binding of CCL2/MCP-1 to CCR2 leads to a change in the conformation of the receptor resulting in Gi/Gq protein activation and intracellular signal cascade. This involves, inter alia, an intracellular Ca^2+ release. The test cell used was a Chem-1 cell line transfected with human CCR2 (ChemiSCREEN™ CCR2B Calcium-Optimized FLIPR Cell Line, Merck Millipore).
(§1) The test substances were dissolved in dimethyl sulphoxide (DMSO) at a concentration of 10 mM and serially diluted with DMSO in steps of 1:3.16 for a 10-point dose/activity analysis. According to the desired test concentrations, the substances were pre-diluted in Tyrode with 2 mM CaCl2 and 0.05% BSA.
The cells, cultivated in DMEM high glucose [supplemented with 10% FCS, 1 mM pyruvate, 15 mM HEPES, 500 μg/ml geniticin and non-essential amino acids (NEAA)], were sown at 5000 cells/25 μl in 384 well, μCLEAR/black cell culture plates from Greiner (#781092) and incubated at 37° C. for 24 h. The sowing medium consisted of DMEM high glucose [supplemented with 5% FCS, 1 mM pyruvate, 15 mM HEPES, 50 U/ml penicillin, 50 μg/ml streptomycin and non-essential amino acids (NEAA)]. The medium was then removed and the cells were charged for 60 min at 37° C. with Fluo-4 dye [25 μl Tyrode with 3 μM Fluo-4 AM (1 mM DMSO stock solution), 0.4 mg/ml Brilliant Black, 2.5 mM probenicid, 0.03% Pluronic F-127]. The cells were pre-incubated for 10 min with 10 μl of the test substances diluted in buffer, and 20 μl of agonist solution (MCP-1 in Tyrode with 0.05% BSA) were then added. MCP-1 was employed at the concentration which corresponds to the EC50 which had been determined in a preliminary test (usually about 5 nM). Ca^2+ release was monitored over a period of 120 s in 1 s increments in a proprietary fluorescence imaging reader. The molar concentration of the test substance which caused 50% inhibition of the MCP-1 effect (IC50) was determined using a 4-parameter logistic function (Hill function).

murine CCR2 [1] = target: T2, murine CCR2 (Mus musculus, UniProt P51683); assay: Functional β-arrestin recruiting test with murine MCP-1 (B-2b); settings: U2OS β-arrestin cell line transfected with murine CCR2; agonist murine MCP-1
T2 construct: host or cells: U2OS β-arrestin cell line
T2 sequence (P51683 whole entry): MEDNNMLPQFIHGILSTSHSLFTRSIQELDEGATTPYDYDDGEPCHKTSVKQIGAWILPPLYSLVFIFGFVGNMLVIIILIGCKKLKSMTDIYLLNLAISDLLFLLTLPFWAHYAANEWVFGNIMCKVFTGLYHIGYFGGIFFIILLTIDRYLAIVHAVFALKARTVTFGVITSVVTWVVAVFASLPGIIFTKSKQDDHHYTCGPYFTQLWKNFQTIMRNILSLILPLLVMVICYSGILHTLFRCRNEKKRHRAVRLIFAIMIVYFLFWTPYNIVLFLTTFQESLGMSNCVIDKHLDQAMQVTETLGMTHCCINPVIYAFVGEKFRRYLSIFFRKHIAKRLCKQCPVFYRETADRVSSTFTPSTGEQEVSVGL
Experimental: (§2) The antagonistic action of test substances on CCR2 was determined in a β-arrestin test. The PathHunter β-arrestin GPCR test system (DiscoveRx Corporation, Ltd.) is a cell-based functional method for detecting binding of β-arrestin to an activated receptor. The molecular basis is a β-galactosidase complementation measured by the enzymatic conversion of a chemiluminescent substrate. The test cell used was a U2OS β-arrestin cell line transfected with murine CCR2 (93-0543C3, DiscoveRx Corporation, Ltd.).
as §1
(§3) The cells, cultivated in MEM Eagle (supplemented with 10% FCS, 50 U/ml of penicillin, 50 μg/ml of streptomycin, 250 μg/ml of hygromycin and 500 μg/ml of geniticin), were sown at 2000 cells/25 μl in 384 well, μCLEAR/black cell culture plates from Greiner (#781092) and incubated at 37° C. for 24 h. The sowing medium consisted of Opti-MEM (supplemented with 1% FCS, 50 U/ml of penicillin and 50 μg/ml of streptomycin). The cells were pre-incubated for 10 min with 10 μl of the test substances diluted in buffer, and 10 μl of agonist solution [human MCP-1 (PeproTech, #300-04) in Tyrode with 0.05% BSA] were then added. The human MCP-1 was employed at the concentration which corresponds to the EC50 which had been determined in a preliminary test (usually about 3 nM). After 90 min of incubation at 37° C., the solution was removed, and recruitment of β-arrestin to CCR2 was detected with the aid of the PathHunter detection reagent (93-001, DiscoveRx Corporation, Ltd.) according to the instructions of the manufacturer. Luminescence was measured after an incubation time of 60 min using a proprietary luminescence imaging measuring instrument. The molar concentration of the test substance which caused 50% inhibition of the MCP-1 effect (IC50) was determined using a 4-parameter logistic function (Hill function).
The test was carried out in a manner identical to that described above under B-2a, but using murine MCP-1 (PeproTech, #250-10) as agonist.

murine CCR2 [2] = target: T2, murine CCR2; assay: Functional β-arrestin recruiting test with human MCP-1 (B-2a); settings: U2OS β-arrestin cell line transfected with murine CCR2; agonist human MCP-1 at EC50 (about 3 nM)
Experimental: as §2, §1, §3

| IC50 (human CCR2) | IC50 (murine CCR2 [1]) | IC50 (murine CCR2 [2]) | SMILES |
| --- | --- | --- | --- |
| 0.0015 µM | 0.545 µM | – | Cc1cc(Oc2c(C(F)(F)F)nc(N)[nH]c2=O)ccc1Cl [Example 72] |
| 0.045 µM | 3.71 µM | – | CC(c1ccc(Cl)c(Cl)c1)c1c(C(F)(F)F)nc(N)[nH]c1=O (stereo not shown) [Example 70] |
| 0.381 µM | 60 µM | – | Nc1nc(C(F)(F)F)c(Cc2ccc(Cl)nc2)c(=O)[nH]1 [Example 58] |
| 0.11 µM | 2.95 µM | – | Nc1nc(C(F)(F)F)c(S(=O)(=O)c2ccc(Cl)c(C(F)(F)F)c2)c(=O)[nH]1 [Example 61] |
| 0.032 µM | 0.523 µM | – | O=c1[nH]c(C2CCC2)nc(C(F)(F)F)c1Oc1ccc(Cl)c(Cl)c1 [Example 69] |
| 0.0098 µM | 0.506 µM | – | CNc1nc(C(F)(F)F)c(Oc2ccc(Cl)c(Cl)c2)c(=O)[nH]1 [Example 66] |
| 0.121 µM | 1.63 µM | – | CC(C)Nc1nc(C(F)(F)F)c(Oc2ccc(Cl)c(Cl)c2)c(=O)[nH]1 [Example 65] |
| 0.27 µM | – | 1.9 µM | O=c1[nH]c(C2CC2)nc(C(F)(F)F)c1Cc1ccc(C(F)(F)F)c(Cl)c1 [Example 24, 5-[3-chloro-4-(trifluoromethyl)benzyl]-2-cyclopropyl-6-(trifluoromethyl)pyrimidin-4(3H)-one] |
| 0.09 µM | – | 0.42 µM | NC(=O)Cc1nc(C(F)(F)F)c(Cc2ccc(F)c(Cl)c2)c(=O)[nH]1 [Example 44] |
| 0.049 µM | – | 0.37 µM | O=c1[nH]c(CCO)nc(C(F)(F)F)c1Oc1ccc(Cl)c(Cl)c1 [Example 68] |
| 0.017 µM | – | 0.33 µM | NC(=O)Nc1nc(C(F)(F)F)c(Cc2ccc(Cl)c(Cl)c2)c(=O)[nH]1 [Example 56, 1-[5-(3,4-Dichlorobenzyl)-6-oxo-4-(trifluoromethyl)-1,6-dihydropyrimidin-2-yl]urea] |
| 0.28 µM | – | 1.2 µM | O=c1[nH]c(C2CC2)nc(C(F)(F)F)c1Cc1ccc(Cl)c(F)c1 [Example 23, 5-(4-chloro-3-fluorobenzyl)-2-cyclopropyl-6-(trifluoromethyl)pyrimidin-4(3H)-one] |
| 0.27 µM | – | 2 µM | NC(=O)Cc1nc(C(F)(F)F)c(Cc2cccc(C(F)(F)F)c2)c(=O)[nH]1 [Example 41] |
| 0.22 µM | – | 0.54 µM | CCc1nc(C(F)(F)F)c(Cc2ccc(Cl)c(F)c2)c(=O)[nH]1 [Example 32, 5-(4-chloro-3-fluorobenzyl)-2-ethyl-6-(trifluoromethyl)pyrimidin-4(3H)-one] |
| 0.063 µM | – | 0.98 µM | CCc1nc(C(F)(F)F)c(Cc2ccc(C(F)(F)F)c(Cl)c2)c(=O)[nH]1 [Example 19, 5-[3-Chloro-4-(trifluoromethyl)benzyl]-2-ethyl-6-(trifluoromethyl)pyrimidin-4(3H)-one] |
| 0.15 µM | – | 0.97 µM | NC(=O)Cc1nc(C(F)(F)F)c(Cc2ccc(Cl)c(F)c2)c(=O)[nH]1 [Example 40] |

| IC50 (human CCR2) | IC50 (murine CCR2 [1]) | IC50 (murine CCR2 [2]) | SMILES |
| --- | --- | --- | --- |
| 0.4 µM | – | 2.8 µM | NC(=O)Cc1nc(C(F)(F)F)c(Cc2cc(F)cc(C(F)(F)F)c2)c(=O)[nH]1 [Example 42] |
| 0.049 µM | – | 0.83 µM | Cc1ccc(Cc2c(C(F)(F)F)nc(CC(N)=O)[nH]c2=O)cc1Cl [Example 47] |
| 0.15 µM | – | 0.52 µM | O=c1[nH]c(C2CC2)nc(C(F)(F)F)c1Cc1ccc(F)c(Cl)c1 [Example 34, 5-(3-chloro-4-fluorobenzyl)-2-cyclopropyl-6-(trifluoromethyl)pyrimidin-4(3H)-one] |
| 0.12 µM | – | 0.22 µM | CCc1nc(C(F)(F)F)c(Cc2ccc(Cl)c(Cl)c2)c(=O)[nH]1 [Example 31, 5-(3,4-dichlorobenzyl)-2-ethyl-6-(trifluoromethyl)pyrimidin-4(3H)-one] |
| 0.054 µM | – | 1 µM | Nc1nc(C(F)(F)F)c(Oc2cncc(Cl)c2)c(=O)[nH]1 [Example 12, 2-amino-5-[(5-chloropyridin-3-yl)oxy]-6-(trifluoromethyl)pyrimidin-4(3H)-one] |
| 0.033 µM | – | 0.16 µM | Nc1nc(C(F)(F)F)c(Cc2ccc(Cl)c(C(F)(F)F)c2)c(=O)[nH]1 [Example 8, 2-amino-5-[4-chloro-3-(trifluoromethyl)benzyl]-6-(trifluoromethyl)pyrimidin-4(3H)-one] |
| 0.015 µM | – | 0.074 µM | CCc1nc(C(F)(F)F)c(Oc2ccc(Cl)c(Cl)c2)c(=O)[nH]1 [Example 33, 5-(3,4-dichlorophenoxy)-2-ethyl-6-(trifluoromethyl)pyrimidin-4(3H)-one] |
| 0.071 µM | – | 0.81 µM | Nc1nc(C(F)(F)F)c(Cc2ccc(C(F)(F)F)c(Cl)c2)c(=O)[nH]1 [Example 14, 2-amino-5-[3-chloro-4-(trifluoromethyl)benzyl]-6-(trifluoromethyl)pyrimidin-4(3H)-one] |
| 0.043 µM | – | 1.3 µM | Nc1nc(C(F)(F)F)c(Oc2ccc(F)c(F)c2)c(=O)[nH]1 [Example 10, 2-amino-5-(3,4-difluorophenoxy)-6-(trifluoromethyl)pyrimidin-4(3H)-one] |
| 0.02 µM | – | 0.44 µM | NC(=O)Cc1nc(C(F)(F)F)c(Oc2ccc(Cl)c(Cl)c2)c(=O)[nH]1 [Example 46] |
| 0.015 µM | – | 0.17 µM | O=c1[nH]c(C2CC2)nc(C(F)(F)F)c1Oc1ccc(Cl)c(Cl)c1 [Example 25, 2-cyclopropyl-5-(3,4-dichlorophenoxy)-6-(trifluoromethyl)pyrimidin-4(3H)-one] |
| 0.008 µM | – | 0.13 µM | NC(=O)Cc1nc(C(F)(F)F)c(Oc2ccc(Cl)c(C(F)(F)F)c2)c(=O)[nH]1 [Example 45] |
| 0.48 µM | – | 3.8 µM | NC(=O)Cc1nc(C(F)(F)F)c(Oc2ccc(F)c(F)c2)c(=O)[nH]1 [Example 37] |
| 0.069 µM | – | 0.33 µM | Nc1nc(C(F)(F)F)c(Cc2ccc(Cl)c(F)c2)c(=O)[nH]1 [Example 13, 2-amino-5-(4-chloro-3-fluorobenzyl)-6-(trifluoromethyl)pyrimidin-4(3H)-one] |
| 0.091 µM | – | 0.8 µM | Cc1ccc(Cc2c(C(F)(F)F)nc(C3CC3)[nH]c2=O)cc1Cl [Example 29, 5-(3-chloro-4-methylbenzyl)-2-cyclopropyl-6-(trifluoromethyl)pyrimidin-4(3H)-one] |
| 0.0078 µM | – | 0.14 µM | O=c1[nH]c(CO)nc(C(F)(F)F)c1Oc1ccc(F)c(Cl)c1 [Example 52] |
